Assay results from US5780505A, “Substituted N-arylmethylamino derivatives of cyclobutene-3, 4-diones” (American Home Products Corporation, priority 1997, dated 1998).

Tested on: Isolated Rat Bladder Strips
Assay: Inhibition of contractions in isolated rat bladder strips (KCl-enhanced contractile activity; smooth muscle relaxation)
Format: cell-based, Sprague-Dawley rats
Conditions: for IC50: 0.5 h, isolated rat bladder strips, 15 mM additional KCl, 30 minute challenge, read-out: IC50 (50% inhibition of pre-drug contractile activity); for inhibition at 30 µM: Rattus norvegicus, read-out: Percent inhibition at 30 μM (I)
Source text: The smooth muscle relaxing activity of the compounds of this invention was established in accordance with standard pharmaceutically accepted test procedures with representative compounds as follows:
Sprague-Dawley rats (150-200 g) are rendered unconscious by CO2 asphyxiation and then euthanized by cervical dislocation. The bladder is removed into warm (37 deg.C) physiological salt solution (PSS) of the following composition (mM): NaCl, 118.4; KCl, 4.7; CaCl2, 2.5; MgSO4, 4.7; H2 O, 1,2; NaHCO3, 24.9; KH2 PO4, 1,2; glucose, 11.1; EDTA, 0.023; gassed with […]; pH 7.4. The bladder is opened and then dut into strips 1-2 mm in width and 7-10 mm in length. The strips are subsequently suspended in a 10 mL tissue bath under an initial resting tension of 1.5 g. The strips are held in place by two surgical clips one of which is attached to a fixed hook while the other is attached to an isometric force transducer. […] The carbachol is then washed out and the tissue allowed to relax to its resting level of activity. Following a further 30 min period of recovery an additional 15 mM KCl are introduced into the tissue bath. This increase in KCl concentration results in a large increase in the amplitude of spontaneous contractions (and initiation of contractions in previously quiescent strips) superimposed upon a small increase in basal tone. Following stabilization of this enhanced level of contractile activity, incremental increases in the concentration of test compound or vehicle are introduced into the tissue bath. Contractile activity is measured for each compound or vehicle concentration during the last minute of a 30 minute challenge.
The isometric force developed by the bladder strips is measured using a […] to elicit 50% inhibition of pre-drug contractile activity (IC50 concentration) and is calculated from this concentration-response curve.

Compound | IC50 [nM] | inhibition at 30 µM [%]
CCC(C)(C)Nc1c(NCc2cccc(C)c2C)c(=O)c1=O [Example 80, 3-(2,3-Dimethyl-benzylamino)-4-(1,1-dimethyl-propylamino)-cyclobut-3-ene-1,2-dione] | 5000 ± 3500 | 
CCC(C)(C)Nc1c(NCc2ccc(C)c(C)c2)c(=O)c1=O [Example 85, 3-(3A-Dimethyl-benzylamino)-4-(1,1-dimethyl-propylamino)-cyclobut-3-ene-1,2-dione] |  | 35.1 ± 4.4
Cc1cc(C)cc(CNc2c(NC(C)(C)C)c(=O)c2=O)c1 [Example 86, 3-tert-Butylamino-4-(3,5-dimethyl-benzylamino)-cyclobut-3-ene-1,2-dione] | 5100 ± 960 | 
CCC(C)(C)Nc1c(NCc2cc(C)cc(C)c2)c(=O)c1=O [Example 87, 3-(3.5-Dimethyl-benzylamino)-4-(1,1-dimethyl-propylamino)-cyclobut-3-ene-1,2-dione] |  | 13.6 ± 8.4
CCC(C)(C)Nc1c(NCc2cc(Cl)cc(Cl)c2)c(=O)c1=O [Example 88, 3-(3,5-Dichloro-benzylamino)-4-(1,1-dimethyl-propylamino)-cyclobut-3-ene-1,2-dione] | 7300 ± 6000 | 
Cc1ccc(CNc2c(NC(C)(C)C)c(=O)c2=O)cc1Cl [Example 90, 3-tert-Butylamino-4-(3-chloro-4-methyl-benzylamino)-cyclobut-3-ene-1,2-dione] |  | 16.6 ± 3.6
CCC(C)(C)Nc1c(NCc2ccc(C)c(Cl)c2)c(=O)c1=O [Example 91, 3-(3-Chloro-4-methyl-benzylamino)-4-(1,1-dimethyl-propylamino)-cyclobut-3-ene-1,2-dione] |  | 30.7 ± 6.7
CC(C)(CO)Nc1c(NCc2ccc(C#N)cc2Cl)c(=O)c1=O [Example 93, 3-Chloro-4-{[2-(2-hydroxy-1,1-dimethyl-ethylamino)-3,4-dioxo-cyclobut-1-enylamino]-methyl}-benzonitrile] | 8100 ± 2000 | 44
CC(=O)N(Cc1ccc(C#N)cc1Cl)c1c(NC(C)(C)C)c(=O)c1=O [Example 98, N-(2-tert-Butylamino-3,4-dioxo-cyclobut-1-enyl)-N-(2-chloro-4-cyano-benzyl)-acetamide] | 20300 ± 790 | 

Further compounds by falling IC50, results first:

IC50 [nM] | Compound | inhibition at 30 µM [%]
2360 ± 1600 | CCCC(=O)N(Cc1ccc(C#N)cc1Cl)c1c(NC(C)(C)C)c(=O)c1=O [Example 101] | 
2300 ± 850 | CC(C)(C)Nc1c(NCc2cc(Cl)cc(Cl)c2)c(=O)c1=O [Example 89, 3-tert-Butylamino-4-(3.5-dichloro-benzylamino)-cyclobut-3-ene-1,2-dione] | 
1910 ± 840 | CCC(C)(C)Nc1c(NCc2cc(C)ccc2C)c(=O)c1=O [Example 94, 3-(2,5-Dimethyl-benzylamino)-4-(1,1-dimethyl-propylamino)-cyclobut-3-ene-1,2-dione] | 
1600 ± 180 | Cc1ccc(CNc2c(NC(C)(C)C)c(=O)c2=O)cc1C [Example 84, 3-tert-Butylamino-4-(3,4-dimethyl-benzylamino)-cyclobut-3-ene-1,2-dione] | 
1500 ± 300 | Cc1ccc(C)c(CNc2c(NC(C)(C)C)c(=O)c2=O)c1 [Example 95, 3-(t-Butylamino)-4-(2.5-dimethyl-benzylamino)-cyclobut-3-ene-1,2-dione] | 
1300 ± 300 | Cc1c(Cl)cccc1CNc1c(NC(C)(C)C)c(=O)c1=O [Example 96, 3-tert-Butylamino-4-(3-chloro-2-methyl-benzylamino)-cyclobut-3-ene-1,2-dione] | 
1240 ± 170 | CC(C)(C)Nc1c(NCc2cccc(Cl)c2Cl)c(=O)c1=O [Example 100, 3-(t-Butylamino)-4-(2,3-dichloro-benzylamino)-cyclobut-3-ene-1,2-dione] | 
810 ± 320 | CCC(C)(C)Nc1c(NCc2cc(Cl)ccc2Cl)c(=O)c1=O [Example 83, 3-(2.5-Dichloro-benzylamino)-4-(1,1-dimethyl-propylamino)-cyclobut-3-ene-1,2-dione] | 
790 ± 470 | CCC(C)(C)Nc1c(NCc2cccc(Cl)c2Cl)c(=O)c1=O [Example 99, 3-(2,3-Dichloro-benzylamino)-4-(1,1-dimethyl-propylamino)-cyclobut-3-ene-1,2-dione] | 
680 ± 240 | CC(C)(C)Nc1c(NCc2cc(Cl)ccc2Cl)c(=O)c1=O [Example 82, 3-tert-Butylamino-4-(2,5-dichloro-benzylamino)-cyclobut-3-ene-1,2-dione] | 
310 ± 80 | CCC(C)(C)Nc1c(NCc2c(C)cc(C)cc2C)c(=O)c1=O [Example 81, 3-(1,1-Dimethyl-propylamino)-4-(2,4,6-trimethyl-benzylamino)-cyclobut-3-ene-1,2-dione] | 
280 ± 25 | CCC(C)(C)Nc1c(NCc2cccc(Cl)c2C)c(=O)c1=O [Example 97, 3-(3-Chloro-2-methyl-benzylamino)-4-(1,1-dimethyl-propylamino)-cyclobut-3-ene-1,2-dione] | 
